# Measured values taken from US10161929B2, “Theranostics platform and methods of use” (Sanford Burnham Prebys Medical Discovery Institute, priority 2012, dated 2018).
# Tests used:
# Assay type in all cases: cell-based, human
# [1] = test system: fibroblasts from the CMD-FKRP patient; assay: Laminin binding, fibroblasts from FKRP deficient patients (FIG. 6, FIG. 9)
# Excerpt: FIG. 6. Fibroblasts were obtained from CMD patients with either low (CMD-FKRP) laminin binding, mid-range laminin binding (LGMD/CMD-FKRP), or closer to normal (LGMD-FKRP) laminin binding. […] Laminin was labeled with rabbit anti-laminin antibodies. Nuclei are stained with DAPI.
# (§1) FIG. 9. Fibroblasts were taken from an FKRP deficient CMD patient and a POMT1 deficient CMD patient. […] Laminin is labeled with rabbit anti-laminin antibodies. Nuclei are stained with DAPI.
# Fibroblasts obtained from a muscular dystrophy patient were seeded at 3000 cells per well in 384-well plates and treated in duplicate at 10 μm with individual compounds from the drug/nutraceutical library. After 48 hours in culture conditions, the cells were exposed to serum free media containing 0.1% BSA and 10 ug/ml laminin from Engelbreth-Holm-Swarm murine sarcoma basement membrane for a period of 2 hours. […]
# (§2) Image analysis was performed to quantify levels of laminin staining using a customized algorithm written with Acapella software (Perkin Elmer). The cytoplasm was defined using DAPI staining as a mask, and the average cytoplasmic intensity of fluorescence per cell was calculated on the basis of at least six random fields captured per well.
# [2] = test system: fibroblasts from the CMD-POMT1 patient; assay: Laminin binding, fibroblasts from a POMT1 deficient CMD patient (FIG. 9)
# Description: as §1
# (§3) Fibroblasts obtained from a muscular dystrophy patient were seeded at 3000 cells per well in 384-well plates and treated in duplicate at 10 μm with individual compounds from the drug/nutraceutical library. After 48 hours in culture conditions, the cells were exposed to serum free media containing 0.1% BSA and 10 ug/ml laminin from Engelbreth-Holm-Swarm murine sarcoma basement membrane for a period of 2 hours. Cells were then fixed with 4% paraformaldehyde and stained with DAPI and a laminin-specific antibody, followed by a fluorescently labeled secondary antibody directed against the laminin specific antibody. The plates were then scanned using an Opera high content confocal microscopy screening system (PerkinElmer) at 20× magnification with separate fluorescent exposures, utilizing a UV light source and a 561 nm laser.
# as §2
# [3] = test system: Fibroblasts obtained from a muscular dystrophy patient; assay: Laminin binding assay (high content screen) in fibroblasts from a muscular dystrophy patient; conditions: for hit in the laminin binding screen (normalizes fibroblast laminin binding; at least 20% activity compared with controls): 10 μm, duplicate, 48 hours, 384-well plates, anti-laminin staining
# Description: as §3, §2
# A compound in the drug/nutraceutical library was considered to normalize the level of fibroblast laminin binding if the compound scored at least 20% activity compared with controls. Fibroblasts from a healthy individual, or from patient cells treated with Trichostatin A at 2 uM were used as positive controls.
# Trichostatin A, SAHA, and Givinostat (another HDAC inhibitor in the same class as Trichostatin A and SAHA) were further tested in an eight-point dose-response assay (at a range of 20-0.02 μm, at three fold dilutions) in triplicate.
# [4] = test system: Immortalized fibroblasts from a CMD patient; assay: Laminin binding, immortalized fibroblasts from a CMD patient (FIG. 5); conditions: dose response curve
# Description: as §3, with “FIG. 5. […] A dose response curve for Givinostat was prepared measuring laminin staining intensity at various concentrations of the compound. Laminin was labeled with rabbit anti-laminin antibodies. Nuclei are stained with DAPI. Fibroblasts” for “Fibroblasts”, “laser. Image analysis was performed to quantify levels of laminin staining using a customized algorithm written with Acapella software (Perkin Elmer). The cytoplasm was defined using DAPI staining as a mask, and the average cytoplasmic intensity of fluorescence per cell was calculated on the basis of at least six random fields captured per well.” for “laser.”
SMILES,"laminin binding ([1]; fibroblasts from the CMD-FKRP patient, FIG. 9)","laminin binding ([1]; fibroblasts with low (CMD-FKRP), mid-range (LGMD/CMD-FKRP) or closer to normal (LGMD-FKRP) laminin binding, FIG. 6)",laminin binding [2],hit in the laminin binding screen (normalizes fibroblast laminin binding; at least 20% activity compared with controls) [3],"laminin binding of patient's fibroblasts after treatment ([3]; fibroblasts from a CMD-affected patient, compared with unaffected sibling, rabbit anti-laminin antibodies, FIG. 4)",levels of laminin binding (laminin staining intensity) [4]
CC(/C=C/C(=O)NO)=C\[C@@H](C)C(=O)c1ccc(N(C)C)cc1 [Trichostatin A],increased laminin binding,increased laminin binding,did not result in visibly increased laminin binding,identified as hits,,
O=C(CCCCCCC(=O)Nc1ccccc1)NO [SAHA],,,,identified as hits,normalized to the levels of the patient's unaffected sibling,
CCN(CC)Cc1ccc2cc(COC(=O)Nc3ccc(C(=O)NO)cc3)ccc2c1 [Givinostat],,,,,,increased levels of laminin binding
